Where no end group is shown, it is not given here.
Columns and labels:
ETEC7 [1] = test: ETEC7-infected mouse model: clinical symptoms (body weight, diarrhea score, intestine/carcass ratio, cecum index); format: in vivo, ICR mice; conditions: 9000 U orally for 7 days, n = 6/group
Excerpt: (§1) The animal experiment was approved by the Animal Ethics and Welfare Committee of Huazhong Agricultural University, Wuhan, China (HZAUMO-2023-0264). The animal model was established as in our previous experiment. Female ICR mice (3–4 weeks old) were obtained from the Laboratory Animals Center of Huazhong Agricultural University. After 5 days of adaptation, 36 mice were randomly assigned into 6 groups (n = 6/group), namely, a control group (only phosphate-buffered saline (PBS) treatment), the ETEC7 group (ETEC7 and PBS treatment), the COL group (ETEC7 and 9000 U colistin sulfate treatment), the HP group (ETEC7 and 16 AU rPBD2 treatment), the MP group (ETEC7 and 8 AU rPBD2 treatment), and the LP group (ETEC7 and 4 AU rPBD2 treatment). The mice were fed antibiotics, including kanamycin (400 mg/L), gentamicin (35 mg/L), vancomycin (45 mg/L), metronidazole (215 mg/L), and colistin (850 U/mL), in drinking water for 72 h and were then fed normal water for another 24 h. All mice were fasted for 12 h and then were orally gavaged with 200 μL 3% NaHCO3 30 min prior to the challenge with 10^9 CFU of ETEC7. The mice were orally infected with ETEC7 once a day for 3 days. […] The control and ETEC7 groups were administrated with the same volume of PBS. All mice were treated with PBS, colistin sulfate, or rPBD2 for 7 continuous days.
(§2) Body weight change was calculated as ((final body weight − initial body weight)/initial body weight) × 100%. Diarrhea scores were recorded at 1, 3, 5, and 7 days post infection (dpi) based on the following scoring criteria: (1) normal stool: 0 point; (2) color change/consistency: 1 point; (3) presence of wet tail or mucosa: 2 points; (4) watery stool: 3 points. A score of 1 was considered diarrhea. Fresh stools and 1 cm colon were collected and suspended in sterile PBS. Ten-fold serial dilutions of stool or colon homogenate were plated on MacConkey plates containing 100 μg/mL ampicillin. […] Intestine water content (intestine/carcass ratio) was measured as described previously. The cecum index was calculated as cecum weight (g)/body weight (g). […]

E. coli K88 = test: ETEC7-infected mouse model: E. coli loads in stool and colon; format: in vivo; conditions: ETEC7-infected ICR mice, COL group, 9000 U orally for 7 days, p < 0.05, n = 6/group
Excerpt: The animal experiment was approved by the Animal Ethics and Welfare Committee of Huazhong Agricultural University, Wuhan, China (HZAUMO-2023-0264). The animal model was established as in our previous experiment. Female ICR mice (3–4 weeks old) were obtained from the Laboratory Animals Center of Huazhong Agricultural University. After 5 days of adaptation, 36 mice were randomly assigned into 6 groups (n = 6/group), namely, a control group (only phosphate-buffered saline (PBS) treatment), the ETEC7 group (ETEC7 and PBS treatment), the COL group (ETEC7 and 9000 U colistin sulfate treatment), the HP group (ETEC7 and 16 AU rPBD2 treatment), the MP group (ETEC7 and 8 AU rPBD2 treatment), and the LP group (ETEC7 and 4 AU rPBD2 treatment). […]
as §2, with “points.” for “points. A score of 1 was considered diarrhea. Fresh stools and 1 cm colon were collected and suspended in sterile PBS. Ten-fold serial dilutions of stool or colon homogenate were plated on MacConkey plates containing 100 μg/mL ampicillin.”

ETEC7 [2] = test: ETEC7-infected mouse model: ileum morphology (HE staining); format: in vivo; conditions: ETEC7-infected ICR mice, 7 dpi, n = 6/group
Excerpt: as §1, §2

IL-10 = test: ETEC7-infected mouse model: serum cytokine ELISA; format: in vivo; conditions: ETEC7-infected ICR mice, 9000 U orally for 7 days, 7 dpi, among the groups, p > 0.05, n = 6/group
Excerpt: as §1, §2

IL-6 = test: ETEC7-infected mouse model: serum cytokine ELISA; format: in vivo; conditions: ETEC7-infected ICR mice, 9000 U (COL group) orally for 7 days, 7 dpi, p < 0.05, n = 6/group
Excerpt: as §1, §2

TNF-α = test: ETEC7-infected mouse model: serum cytokine ELISA; format: in vivo; conditions: ETEC7-infected ICR mice, 9000 U (COL group) orally for 7 days, 7 dpi, p < 0.05, n = 6/group
Excerpt: as §1, §2

[3] = in the presence of 150 mM NaCl or 2.5 mM CaCl2; cited from earlier work
Excerpt: It has been reported that PBD2 has antibacterial activity against Gram-positive and -negative bacteria. […] When AMPs are used in the animal industry, many factors, including temperature, pH, enzymes, and salt ions, may affect their activities. […] This may allow crude rPBD2 to endure the ...

[4] = 9000 U (COL group) orally for 7 days, p < 0.05

Substance | diarrhea scores (ETEC7 [1]; ETEC7-infected ICR mice, 1, 3, 5, 7 dpi, vs ETEC7 group) | cecum index (ETEC7 [1]; ETEC7-infected ICR mice, 7 dpi, among the groups) | final body weight (ETEC7 [1]; female ICR mice, ETEC7 10^9 CFU orally once a day for 3 days, 7 dpi, among groups, p > 0.05) | colonized numbers of E. coli K88 in the colon (E. coli K88; 7 dpi) | bacterial loads in feces (E. coli K88; vs ETEC7 group) | VH/CD (villus height/crypt depth, ileum) (ETEC7 [2]; [4]) | villus height (ileum) (ETEC7 [2]; [4]) | crypt depth (ileum) (ETEC7 [2]; 9000 U orally for 7 days, among the groups, p > 0.05) | serum IL-10 levels (IL-10) | serum IL-6 levels (IL-6) | serum TNF-α levels (TNF-α) | antibacterial activity in the presence of salts [3]
colistin sulfate | relative lower diarrhea scores but without significant differences | no significant differences | no significant differences | lower than those in the ETEC7 group | significantly decreased | significantly increase | significantly increase | no significant differences | no significant differences | could decrease the levels of IL-6 | significantly decrease | 
synthetic human β-defensin 3 (hBD-3): synthetic human β-defensin 3, literature comparison (GIINTLQKYYCRVRGGRCAVLSCLPKEEQIGKCSTRGRKCCRRKK; ends and bridges not checked; cysteine pairing not given here; UniProt P81534 23-67, looked up) |  |  |  |  |  |  |  |  |  |  |  | completely abolished
